Measured values taken from patent US4542123A (Massachusetts Institute of Technology, priority 1982, dated 1985).

Tests used:
[1] = Brain and serum tyrosine in fasted rats given tyrosine alone or tyrosine and glucose (Example III, Table 2); format: in vivo, Sprague-Dawley rats; conditions: tyrosine 100 mg/kg alone; 90 min
in vivo = conditions: rat, po, 100 mg/kg
[2] = Brain and plasma tyrosine ratios in fasted rats, tyrosine and glucose given concurrently (Example II, second set); conditions: rat, brain, po, 100 mg/kg

Which “Brain Tyrosine” value [1] does the source give for N[C@@H](Cc1ccc(O)cc1)C(=O)O [Tyrosine, tyrosine] here?
The value was 23.0 ± 2.2 µg/mL.

And the “Brain/Serum (tyrosine)” value [1]?
Its value is 1.02 ± 0.1.

What about the “Serum Tyrosine/Serum LNAA” value [1] of the same molecule?
The value was “.304”.

What about the Kp at 1 h (in vivo; brain) of the same molecule?
The Kp at 1 h was 0.78.

What about the concentration at 1 h (in vivo; serum) of the same molecule?
The concentration at 1 h was 20900 ng/mL.

And the Kp at […] [2]?
The Kp at […] was 0.77.
